This is an account of results in US9073853B2, “Cycloalkane carboxylic acid derivatives as CXCR3 receptor antagonists” (Sanofi, priority 2011, dated 2015).

Where a name gives a salt, the structure may show the parent alone.

Sequence of human CXCR3-A receptor (P49682 whole entry): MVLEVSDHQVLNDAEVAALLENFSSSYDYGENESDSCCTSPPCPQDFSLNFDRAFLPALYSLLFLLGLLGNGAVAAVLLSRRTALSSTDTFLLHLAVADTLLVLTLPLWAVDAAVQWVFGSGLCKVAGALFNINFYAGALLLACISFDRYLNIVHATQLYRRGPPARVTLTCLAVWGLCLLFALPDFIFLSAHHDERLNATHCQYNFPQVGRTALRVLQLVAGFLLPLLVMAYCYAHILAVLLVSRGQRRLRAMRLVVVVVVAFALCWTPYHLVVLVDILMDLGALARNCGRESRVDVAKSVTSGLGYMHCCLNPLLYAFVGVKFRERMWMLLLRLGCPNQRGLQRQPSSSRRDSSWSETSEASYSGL

The assay deals with human CXCR3-A receptor (Homo sapiens (Human), UniProt P49682). As to the kind of experiment: 125I-CXCL10 competition radioligand binding assay. The following applies: displacement of 125I-CXCL10 from membranes of CHO cells expressing human recombinant CXCR3-A. The protocol:
IC50 values were determined for the test compounds and used to explore the structure-activity relationships (SAR). […] This cell line was registered in Sanofi-Aventis cell line bank. […] Cell suspension was diluted with PBS and cells were collected with centrifugation at 230 g for 10 minutes at 10° C. with a Juan centrifuge. […] The supernatant was carefully collected and centrifuged at 100,000×g for 60 min at 4° with a Beckman Avanti J30 centrifuge. […] Protein concentration was determined with Bio-Rad protein assay (Cat No 500-0006). Membrane aliquots were stored at -80° C. […] The composition of the binding assay buffer was determined in a course of detailed optimization procedure. […] Binding reaction was initiated by adding of membranes (10-20 μg proteins, approximately 5×10^5 cell equivalents) to the reaction mixture. After 60 minutes of incubation at 25° C. the reaction was terminated by rapid filtration over GF/B glass fiber filters that were pre-soaked with 0.5% polyethyleneimine (Fluka Analytical, P3143) for 1 hour, using a Skatron cell harvester device. Filters then were washed with 8 ml of ice-cold wash buffer (modified binding buffer in which BSA was omitted and the concentration of NaCl was adjusted to 500 mM concentration). The radioactivity retained on the filters was measured by a Wizard 1470 Automatic Gamma counter. Test compounds were dissolved prior to the binding assay at a concentration of 10 mM in DMSO. Stock solutions were stored at -20° C. for not longer than 3 months. […] Before adding these solutions of test compound to the binding reaction mixture, an intermediate dilution procedure was applied, in which 30 μL of each solution sample was transferred into a dilution tube containing 970 μL of binding assay buffer. […] The IC50 values and Hill slopes for competition binding data were obtained using nonlinear four-parametric curve fitting method.
On the technique in general: Displacement assays read how much labelled ligand stays bound in the presence of the test substance.
One may read the IC50 as the concentration at which inhibition is half-maximal. As to `CCOC(=O)[C@H]1CC[C@H](CN(Cc2ccc(OCCN3C(=O)CCC3=O)c(OC)c2)C(C)c2ccc3c(c2)CCO3)CC1` (relative stereo) [Example 1.1, trans-4-[([1-(2,3-Dihydro-benzofuran-5-yl)-ethyl]-{4-[2-(2,5-dioxo-pyrrolidin-1-yl)-ethoxy]-3-methoxy-benzyl}-amino)-methyl]-cyclohexanecarboxylic acid ethyl ester], the IC50 came to 177 nM. Regarding `COc1cc(CN(C[C@H]2CC[C@H](C(=O)O)CC2)C2CCc3cc(Cl)ccc32)ccc1CCCN1C(=O)CCC1=O` (stereo in doubt) [Example 45, trans-4-[(((R)-5-Chloro-indan-1-yl)-{4-[3-(2,5-dioxo-pyrrolidin-1-yl)-propyl]-3-methoxy-benzyl}-amino)-methyl]-cyclohexanecarboxylic acid], the half-inhibitory concentration (IC50) amounted to 160 nM.

Turning to `COc1cc(CN(C[C@H]2CC[C@H](C(=O)O)CC2)C2CCc3cc(Cl)ccc32)ccc1CCCN1C(=O)CCC1=O` (stereo in doubt) [Example 46, trans-4-[(((S)-5-Chloro-indan-1-yl)-{4-[3-(2,5-dioxo-pyrrolidin-1-yl)-propyl]-3-methoxy-benzyl}-amino)-methyl]-cyclohexanecarboxylic acid], the half-inhibitory concentration (IC50) came to 1000 nM. `COc1cc(CN(C[C@H]2CC[C@H](C(=O)O)CC2)[C@@H](C)c2ccc(Cl)cc2)ccc1OCCN1C(=O)CCC1=O` [Example 5, trans-4-[([(S)-1-(4-Chloro-phenyl)-ethyl]-{4-[2-(2,5-dioxo-pyrrolidin-1-yl)-ethoxy]-3-methoxy-benzyl}-amino)-methyl]-cyclohexanecarboxylic acid]: the half-maximal inhibitory concentration (IC50) was found to be 19 nM. With `COc1cc(CN(C[C@H]2CC[C@H](C(=O)O)CC2)[C@H](C)c2ccc(Cl)cc2)ccc1OCCN1C(=O)CCC1=O` [Example 6, trans-4-[([(R)-1-(4-Chloro-phenyl)-ethyl]-{4-[2-(2,5-dioxo-pyrrolidin-1-yl)-ethoxy]-3-methoxy-benzyl}-amino)-methyl]-cyclohexanecarboxylic acid], the IC50 turned out to be 20 nM. As to `Cc1cc(CN(C[C@H]2CC[C@H](C(=O)O)CC2)[C@@H](C)c2ccc(Cl)cc2)ccc1OCCN1C(=O)CCC1=O` [Example 7, trans-4-[([(S)-1-(4-Chloro-phenyl)-ethyl]-{4-[2-(2,5-dioxo-pyrrolidin-1-yl)-ethoxy]-3-methyl-benzyl}-amino)-methyl]-cyclohexanecarboxylic acid], the IC50 worked out at 38 nM. Turning to `Cc1cc(CN(C[C@H]2CC[C@@H](C(=O)O)CC2)[C@@H](C)c2ccc(Cl)cc2)ccc1OCCN1C(=O)CCC1=O` [Example 8, cis-4-[([(S)-1-(4-Chloro-phenyl)-ethyl]-{4-[2-(2,5-dioxo-pyrrolidin-1-yl)-ethoxy]-3-methyl-benzyl}-amino)-methyl]-cyclohexanecarboxylic acid], the IC50 was determined as 3810 nM. `Cc1cc(CN(C[C@H]2CC[C@H](C(=O)O)CC2)[C@H](C)c2ccc(Cl)cc2)ccc1OCCN1C(=O)CCC1=O` [Example 9, trans-4-[([(R)-1-(4-Chloro-phenyl)-ethyl]-{4-[2-(2,5-dioxo-pyrrolidin-1-yl)-ethoxy]-3-methyl-benzyl}-amino)-methyl]-cyclohexanecarboxylic acid]: the concentration for half-maximal inhibition (IC50) was 32 nM. With `COc1cc(CN(C[C@H]2CC[C@H](C(=O)O)CC2)C2CCc3cc(Cl)ccc32)ccc1OCCN1C(=O)CCC1=O` (stereo partly drawn) [Example 10, trans-4-[((5-Chloro-indan-1-yl)-{4-[2-(2,5-dioxo-pyrrolidin-1-yl)-ethoxy]-3-methoxy-benzyl}-amino)-methyl]-cyclohexane-carboxylic acid], the concentration for half-maximal inhibition (IC50) stood at 64 nM. The same measure for `COc1cc(CN(C[C@H]2CC[C@H](C(=O)O)CC2)[C@@H]2CCc3cc(Cl)ccc32)ccc1OCCN1C(=O)CCC1=O` [Example 11, trans-4-[(((R)-5-Chloro-indan-1-yl)-{4-[2-(2,5-dioxo-pyrrolidin-1-yl)-ethoxy]-3-methoxy-benzyl}-amino)-methyl]cyclohexanecarboxylic acid]: 200 nM. For the compound `COc1cc(CN(C[C@H]2CC[C@H](C(=O)O)CC2)[C@H]2CCc3cc(Cl)ccc32)ccc1OCCN1C(=O)CCC1=O` [Example 12, trans-4-[(((S)-5-Chloro-indan-1-yl)-{4-[2-(2,5-dioxo-pyrrolidin-1-yl)-ethoxy]-3-methoxy-benzyl}-amino)-methyl]-cyclohexanecarboxylic acid], the 50% inhibitory concentration (IC50) is 13 nM.

As for `COc1cc(CN(C[C@H]2CC[C@@H](C(=O)O)CC2)C2CCc3cc(Cl)ccc32)ccc1OCCN1C(=O)CCC1=O` (stereo partly drawn) [Example 13, cis-4-[((5-Chloro-indan-1-yl)-{4-[2-(2,5-dioxo-pyrrolidin-1-yl)-ethoxy]-3-methoxy-benzyl}-amino)-methyl]-cyclohexane-carboxylic acid], the IC50 is 1660 nM. The same measure for `COc1cc(CN(C[C@H]2CC[C@H](C(=O)O)CC2)[C@H]2CCc3c2ccc(Cl)c3Cl)ccc1OCCN1C(=O)CCC1=O` [Example 14, trans-4-[(((S)-4,5-Dichloro-indan-1-yl)-{4-[2-(2,5-dioxo-pyrrolidin-1-yl)-ethoxy]-3-methoxy-benzyl}-amino)-methyl]-cyclohexanecarboxylic acid hydrochloride]: 25 nM; for `COc1cc(CN(C[C@H]2CC[C@H](C(=O)O)CC2)C(C)c2ccc3c(c2)CCO3)ccc1OCCN1C(=O)CSC1=O` (stereo partly drawn) [Example 15, trans-4-[([1-(2,3-Dihydro-benzofuran-5-yl)-ethyl]-{4-[2-(2,4-dioxo-thiazolidin-3-yl)-ethoxy]-3-methoxy-benzyl}-amino)-methyl]-cyclohexanecarboxylic acid]: 37 nM; for `CC(c1ccc2c(c1)CCO2)N(Cc1ccc(OCCN2C(=O)CCC2=O)c(Cl)c1)C[C@H]1CC[C@H](C(=O)O)CC1` (stereo partly drawn) [Example 16, trans-4-({{3-Chloro-4-[2-(2,5-dioxo-pyrrolidin-1-yl)-ethoxy]-benzyl}-[1-(2,3-dihydro-benzofuran-5-yl)-ethyl]-amino}-methyl)-cyclohexanecarboxylic acid]: 35 nM.

As for `Cc1cc(CN(C[C@H]2CC[C@H](C(=O)O)CC2)C(C)c2ccc3c(c2)CCO3)ccc1OCCN1C(=O)CCC1=O` (stereo partly drawn) [Example 17, trans-4-[([1-(2,3-Dihydro-benzofuran-5-yl)-ethyl]-{4-[2-(2,5-dioxo-pyrrolidin-1-yl)-ethoxy]-3-methyl-benzyl}-amino)-methyl]-cyclohexanecarboxylic acid], the IC50 is 44 nM. As to `CCC(c1ccc2c(c1)CCO2)N(Cc1ccc(OCCN2C(=O)CCC2=O)c(OC)c1)C[C@H]1CC[C@H](C(=O)O)CC1` (stereo partly drawn) [Example 18, trans-4-[([1-(2,3-Dihydro-benzofuran-5-yl)-propyl]-{4-[2-(2,5-dioxo-pyrrolidin-1-yl)-ethoxy]-3-methoxy-benzyl}-amino)-methyl]-cyclohexanecarboxylic acid], the IC50 is 64 nM.

As for `COc1cc(CN(C[C@H]2CC[C@H](C(=O)O)CC2)C(C)c2ccc3c(c2)CCO3)ccc1OCCN1C(=O)COC1=O` (stereo partly drawn) [Example 19, trans-4-[([1-(2,3-Dihydro-benzofuran-5-yl)-ethyl]-{4-[2-(2,4-dioxo-oxazolidin-3-yl)-ethoxy]-3-methoxy-benzyl}-amino)-methyl]-cyclohexanecarboxylic acid], the concentration for half-maximal inhibition (IC50) came out at 55 nM.
